Laboratory results: patent publication US8598184B2, “Protein kinase inhibitors” (Tiger Pharmatech, priority 2008, dated 2013)
Several values for one entry are separate records, joined by “and”; a condition that tells them apart may be missing. Equal values may be shown once. Read-outs that look alike come from different tables or passages of the source.

Legend:
[1] = In vivo pharmacokinetics study in rats, intravenous and oral administration; design: species or system male Sprague Dawley rats
Protocol: The compounds of the present invention were formulated as a solution in a 30:70 (PEG 400:acidified H2O) vehicle. This solution was administered orally (p.o.) at 10 mg/kg and intravenously (i.v.) at 2.5 mg/kg to two distinct groups (n=3) of male Sprague Dawley rats (body weight of 220-250 g). The animals used in the oral dosing group were fasted for 12 hrs before the drug administration. The blood samples were collected via retro-orbital puncture at 0 hour (pre-dose), 0.083, 0.25, 0.5, 1, 2, 4, 6, 8, and 24 hours post-dose. The blood plasma was isolated and HPLC was performed to determine the concentration of the test compounds in blood plasma. Standard set of pharmacokinetic parameters including Area Under the Curves (AUC's), elimination half-lives and bioavailabilities etc. were calculated using FDA certified pharmacokinetic program WinNonlin Professional v5.2 (Pharsight, USA).
The bioavailability was calculated as F (%)=(Doseiv×AUCoral(0-∞))/(Doseoral×AUCiv(0-∞))100%. The plasma concentration-time curve of example 5 in male rats following intravenous and oral administration was shown in FIG. 1. Selected pharmacokinetics parameters of example 5 in male rats following intravenous and oral administration were listed in Table 2.

[2] = test system: U87MG glioblastoma tumor xenograft; conditions: for tumor growth inhibition: Day 12, vs vehicle-treated controls
Protocol: The U87MG glioblastoma cell line (obtained from Institute of Biochemistry and Cell Biology, Shanghai Institutes for Biological Sciences) expresses the c-Met receptor and responds to […] (HGF). […] The study utilized a tumor growth inhibition (TGI) assay to test per os (p.o.) compound monotherapy in groups of eight nude mice. A control group was treated with a 30:70 (PEG 400:acidified H2O) vehicle. All treatments began on Day 1 (D1) in mice bearing established subcutaneous (s.c.) U87MG tumors.
Female athymic nude mice (BALB/cA, Shanghai Laboratories Animal Center, Shanghai, China) were 7-8 weeks old with a body weight range of 19-21 g at the beginning of the study. Food and water were available ad libitum throughout the study. Mice were housed in SPF (Specific Pathogen Free) area of Medicilon/MPI animal facility. Environmental control for the animal room was set to maintain a temperature of 18-25° C., humidity of 30-70%, and a 12-hour light/12-hour dark cycle. Animals had previously been acclimated to study procedures prior to initial dose administration. Animals to be used on test were selected based on overall health and acclimation to caging.
U-87 MG human glioblastoma cells were purchased from Institute of Biochemistry and Cell Biology, Shanghai Institutes for Biological Sciences. The cells were maintained in vitro Eagle's Minimum Essential Medium supplemented with 10% heat inactivated fetal calf serum. Cells were cultured at 37° C. in an atmosphere of 5% CO2 in air and routinely sub-cultured twice weekly by trypsin-EDTA treatment. Cells in an exponential growth phase were harvested and counted for tumor inoculation. Each test mouse was subcutaneously inoculated with 1×10^7 U87-MG tumor cells in 0.1 ml medium at the right flank of the mouse for tumor model development. During the experiment, the implanted tumors were measured by external caliper every other day in a blind fashion. Nine days later, on Day 1 of the study, mice with well-established tumors (about 150 mm^3) were randomly assigned into 4 groups (n=8 mice/group). Tumor volume was calculated using the formula: Tumor Volume=w^2×l/2 where w=width and l=length in mm of the tumor. Tumor weight may be estimated with the assumption that 1 mg is equivalent to 1 mm^3 of tumor volume.
In all groups, the dosing volume of 0.2 mL/20 g mouse was scaled to the body weight of each animal
The MTV (n) is defined as the median tumor volume (MTV) for the number of animals, n, remaining in the study on that day. The Median Tumor Growth Volume=Median Tumor Volume−Median Tumor Volumeinitial.
Tumor growth was plotted as the median tumor volume, versus time, for each group in the study. The differences in the tumor size between the treatment groups and the vehicle group are analyzed for significance using the unpaired two-tailed Student's t-test. P<0.05 is considered to be statistically significant.

[3] = male rats, IV 2.5 mg/kg, individual animals R 1-R 3
[4] = male rats, PO 10 mg/kg, fasted, individual animals R 4-R 6
[5] = male, Sprague Dawley, rat, plasma, iv, 2.5 mg/kg, IV 2.5 mg/kg, individual animals R 1-R 3
[6] = male, Sprague Dawley, rat, plasma, iv, 2.5 mg/kg, IV 2.5 mg/kg, mean (n=3)
[7] = male, Sprague Dawley, rat, plasma, po, 10 mg/kg, PO 10 mg/kg, fasted, individual animals R 4-R 6
[8] = male, Sprague Dawley, rat, plasma, po, 10 mg/kg, PO 10 mg/kg, fasted, mean (n=3)

SMILES: OCCn1cc(-c2ncc3nnn(Cc4ccc5ncccc5c4)c3n2)cn1 [Example 5, 2-(4-(3-(Quinolin-6-ylmethyl)-3H-[1,2,3]triazolo[4,5-d]pyrimidin-5-yl)-1H-pyrazol-1-yl)ethanol]
- Tmax ([1]; Sprague Dawley, rat, plasma, male rats, IV 2.5 mg/kg, individual animals R 1-R 3): 0.08 h
- Tmax ([1]; Sprague Dawley, rat, plasma, male rats, PO 10 mg/kg, fasted, individual animals R 4-R 6): 2 h
- AUC(0-t) [1, 3]: 5472.46 ng·h/mL and 3451.75 ng·h/mL and 7274.77 ng·h/mL
- AUC(0-∞) [1, 3]: 3741.58 ng·h/mL and 7310.08 ng·h/mL
- Cmax [1, 3]: 2417.88 ng/mL and 3019.57 ng/mL
- t1/2 [1, 3]: 2.59 h and 3.23 h
- F % (bioavailability) ([1]; male rats, PO 10 mg/kg vs IV 2.5 mg/kg, individual animals R 4-R 6): 70.36% and 72.63%
- AUC(0-t) [1, 4]: 15454.20 ng·h/mL and 15954.84 ng·h/mL
- AUC(0-∞) [1, 4]: 15509.49 ng·h/mL and 16010.05 ng·h/mL
- Cmax [1, 4]: 1505.63 ng/mL and 2299.65 ng/mL
- t1/2 [1, 4]: 2.82 h and 2.98 h
- AUC(0-inf) [1, 5]: 5480 ng·h/mL
- half-life [1, 5]: 2.62 h
- Cmax ([1]; male, Sprague Dawley, rat, plasma, iv, 2.5 mg/kg, IV 2.5 mg/kg, individual animals R 1-R 3, read-out: Cmax): 2700 ng/mL
- AUC(0-inf) [1, 6]: 5510 ng·h/mL
- half-life [1, 6]: 2.81 h
- AUC(0-t) ([1]; male, Sprague Dawley, rat, plasma, iv, 2.5 mg/kg, IV 2.5 mg/kg, mean (n=3), read-out: AUC(0-t)): 5400 ng·h/mL
- Cmax ([1]; male, Sprague Dawley, rat, plasma, iv, 2.5 mg/kg, IV 2.5 mg/kg, mean (n=3), read-out: Cmax): 2710 ng/mL
- bioavailability ([1]; male, Sprague Dawley, rat, plasma, po, 10 mg/kg, PO 10 mg/kg vs IV 2.5 mg/kg, individual animals R 4-R 6, read-out: F % (bioavailability)): 79.4%
- bioavailability ([1]; male, Sprague Dawley, rat, plasma, po, 10 mg/kg, PO 10 mg/kg vs IV 2.5 mg/kg, mean (n=3), read-out: F % (bioavailability)): 74.1%
- AUC(0-inf) [1, 7]: 17500 ng·h/mL
- half-life [1, 7]: 2.88 h
- AUC(0-t) ([1]; male, Sprague Dawley, rat, plasma, po, 10 mg/kg, PO 10 mg/kg, fasted, individual animals R 4-R 6, read-out: AUC(0-t)): 17400 ng·h/mL
- Cmax ([1]; male, Sprague Dawley, rat, plasma, po, 10 mg/kg, PO 10 mg/kg, fasted, individual animals R 4-R 6, read-out: Cmax): 2540 ng/mL
- AUC(0-inf) [1, 8]: 16300 ng·h/mL
- half-life [1, 8]: 2.89 h
- AUC(0-t) ([1]; male, Sprague Dawley, rat, plasma, po, 10 mg/kg, PO 10 mg/kg, fasted, mean (n=3), read-out: AUC(0-t)): 16300 ng·h/mL
- Cmax ([1]; male, Sprague Dawley, rat, plasma, po, 10 mg/kg, PO 10 mg/kg, fasted, mean (n=3), read-out: Cmax): 2110 ng/mL
- tumor growth inhibition ([2]; 10 mg/kg p.o. once a day (q.d.)): 58%
- tumor growth inhibition ([2]; 30 mg/kg p.o. twice a day (b.i.d.)): 70%
- significance of tumor growth inhibition ([2]; 40 mg/kg (q.d.) and 30 mg/kg (b.i.d.), from Day 4, p<0.05): statistically significant tumor growth inhibition
- tumor growth inhibition ([2]; 40 mg/kg p.o. once a day (q.d.)): 66%
- significance of tumor growth inhibition ([2]; all doses (10, 40 mg/kg q.d., 30 mg/kg b.i.d.), from Day 6, p<0.05): statistically significant tumor growth inhibition
